Where two headings read alike, the source gives them in different places.
Experiments:
[1] = In vivo PK study in male CD1 mice; details: for AUC(0-t): read-out: AUCLast Mean; for clearance: read-out: Mouse CL; for Vd: read-out: Mouse Vss
Experimental: The studies were conducted in male Sprague Dawley rats, three rats per group, or male CD1 mice, three mice per group. Compounds were dosed 1.0 mg/Kg i.v. (vehicle ethanol: % PEG400 in deionized water, in proportions suitable for dosing a clear solution) and 3.0 mg/kg or 10 mg/kg p.o. (vehicle: 1% methyl cellulose: 1,500 cP in DI water (w/v)). A11 animals had free access to food and water. Rat i.v. PK time points: Plasma: 0.083, 0.25, 0.5, 1, 2, 4, 8 and 24 h; Rat p.o. PK time points: Plasma: 0.25, 0.5, 1, 2, 4, 8 and 24 h. Mouse i.v. PK time points: Plasma: 0.083, 0.25, 0.5, 1, 2, 4, 8, 24, and 48 h; Mouse p.o. PK time points: Plasma: 0.25, 0.5, 1, 2, 4, 8, 24, and 48 h. Concentrations of compound in the plasma samples were analyzed using a LC-MS/MS method. WinNonlin (Phoenix™, version 6.1) or other similar software was used for pharmacokinetic calculations.

[2] = Hepatocyte Stability Assay, human; format: in vitro ADME; details: for CLint scaled: human, plated hepatocytes; for CLint scaled / Human hepatocyte clearance Plated hepatocyte Alliance assay: plated hepatocyte; for Plated heps (% Qh) / Plated heps (% Qh), All: plated human hepatocytes; for Plated heps (% Qh), All: value in brackets marked "All"
[3] = Plasma Protein Binding with Ultracentrifugation Method, mouse; format: in vitro ADME; details: for fraction unbound at 30 min, 1 μM: mouse plasma, read-out: Mouse plasma protein binding (% bound); for fraction unbound at 5.5 h, 1 μM: mouse, plasma, read-out: Plasma Protein Binding PPB (m) % (converted)
Experimental: (§1) The frozen plasma (stored at −80° C.) was thawed in a 37° C. water bath, followed by centrifugation at 3,220 g for 10 minutes to remove clots. The supernatant was removed into a new tube as the spun plasma. The spun plasma was pre-warmed in a 37° C. water bath for 10 minutes. The stock solutions of test compounds were diluted to 200 μM in DMSO, and then spiked into the plasma. Duplicate samples were prepared. The final concentration of compound was 1.0 μM. The final concentration of organic solvent was 0.5%. Warfarin was used as positive control in the assay. 1.0 mL of the spiked plasma was transferred to a new balance ultracentrifuge tube. Samples were incubated at 37° C., 5% CO2 for 30 minutes. After incubation, the balance ultracentrifuge tubes were centrifuged at 600,000 g for 5.5 hours at 37° C. After centrifugation, 50 μL solution was removed from the center of the ultracentrifuge tubes as the post-ultracentrifugation samples, followed by the addition of 50 μL blank plasma and 400 μL quench solution (acetonitrile containing internal standards (IS, 100 nM Alprazolam, 500 nM Labetalol and 2 μM Ketoprofen)) to precipitate protein and release compounds. Samples were vortexed for 2 minutes, followed by centrifugation at 20,000 g for 15 minutes at room temperature. The supernatant was diluted with ultrapure water and then used for LC-MS/MS analysis. Stability samples was prepared by transferring 50 μL of the spiked plasma to 0.6 mL tubes and incubated at 37° C., 5% CO2 for 0.5 and 6 hours. After incubation, 50 μL PBS (100 mM, pH7.4) and 400 μL quench solution were added to the stability samples. And then stability samples were treated the same way as the post-ultracentrifugation samples. The supernatant was diluted with ultrapure water and then used for LC-MS/MS analysis. 0.5 hour time point samples were also used as no-spun controls. Time 0 samples were prepared by transferring 50 μL spiked plasma to 0.6 mL tubes containing 50 μL PBS, followed by the addition of 400 μL quench solution to precipitate protein and release compound. And then these samples were treated the same way as the post-ultracentrifugation samples. The supernatant was diluted with ultrapure water and then used for LC-MS/MS analysis.
(§2) Data Analysis: All calculations were carried out using Microsoft Excel. The concentrations of test compound in plasma samples and post-ultracentrifugation plasma was determined from peak areas. The percentages of test compound bound was calculated as follows: […]
(§3) “+++” indicates a % bound value less than 50, “++” indicates a % bound value between 50 and 75, and “+” indicates a % bound value above 75.

[4] = Plasma Protein Binding with Ultracentrifugation Method, human; format: in vitro ADME; details: for fraction unbound at 30 min, 1 μM: human plasma, read-out: Human plasma protein binding (% bound); for fraction unbound at 5.5 h, 1 μM: human, plasma, read-out: Plasma Protein Binding PPB (h) % (converted)
Experimental: as §1, §2, §3

[5] = male, CD1, mouse, plasma, mice, 1 mg/kg IV
[6] = male, CD1, mouse, plasma, mice, 1 mg/kg IV, read-out: T1/2 Mean (converted)
[7] = male, CD1, mouse, plasma, mice, 10 mg/kg PO
[8] = male, CD1, mouse, plasma, mice, 10 mg/kg PO, read-out: Bioavailability
[9] = male, CD1, mouse, plasma, mice, 10 mg/kg PO, read-out: T1/2 Mean (converted)
[10] = male, CD1, plasma, intravenous, 1 mg/kg, in vivo DMPK profile, mouse
[11] = male, CD1, plasma, intravenous, 1 mg/kg, in vivo DMPK profile, mouse, read-out: Mouse T1/2 (converted)
[12] = male, CD1, plasma, oral, 10 mg/kg, in vivo DMPK profile, mouse, read-out: Mouse % F
[13] = Pharmaron assay, read-out: Human hepatocyte clearance Plated hepatocyte Pharmaron assay
[14] = Alliance assay, read-out: Human hepatocyte clearance Plated hepatocyte Alliance assay

fraction unbound at 30 min, 1 μM [3]	fraction unbound at 30 min, 1 μM [4]	SMILES	AUC(0-t) [1, 5]	half-life [1, 6]	Cmax [1, 7]	bioavailability [1, 8]	CI Mean ([1]; mice, 1 mg/kg IV)	CLint scaled [2, 13]	also measured
< 0.25	< 0.25	Cn1cc(-c2nc(-c3ccc(C(F)(F)F)cn3)cc3c(=O)n(CC(C)(C)O)cnc23)cn1 [Compound 103, 3-(2-hydroxy-2-methylpropyl)-8-(1-methyl-1H-pyrazol-4-yl)-6-(5-(trifluoromethyl)pyridin-2-yl)pyrido[3,4-d]pyrimidin-4(3H)-one]	10400 ng·h/mL	69.5 h	152 ng/mL	5.82%	10.7 mL/min/kg		C0 [1, 5]: 349 ng/mL; Tmax [1, 7]: 13.3 h; AUC(0-t) [1, 7]: 6060 ng·h/mL
	< 0.25	C[C@@H](CO)n1cnc2c(-n3ccnc3)nc(-c3ccc(OC(F)(F)F)cc3)cc2c1=O [Compound 44, (S)-3-(1-hydroxypropan-2-yl)-8-(1H-imidazol-1-yl)-6-(4-(trifluoromethoxy)-phenyl)pyrido[3,4-d]pyrimidin-4(3H)-one]							
		O=c1c2cc(-c3ccc(C(F)(F)F)nc3)nc(-c3cccnc3)c2ncn1C[C@H](O)C(F)(F)F [Compound 57]							CLint scaled [2, 14]: < 20 mL/min/kg
	< 0.25	C[C@@H](n1cnc2c(-c3cccnc3)nc(-c3ccc(Cl)cc3)cc2c1=O)C(C)(C)O [Compound 33]							
< 0.25	< 0.25	C[C@@H](CO)n1cnc2c(-c3cnn(C)c3)nc(-c3ccc(C(F)(F)F)nc3)cc2c1=O [Compound 68]							CLint scaled [2, 14]: < 20 mL/min/kg
	< 0.25	C[C@@H](CO)n1cnc2c(-c3cncc(F)c3)nc(-c3ccc(OC(F)(F)F)cc3)cc2c1=O [Compound 1, (S)-8-(5-fluoropyridin-3-yl)-3-(1-hydroxypropan-2-yl)-6-(4-(trifluoromethoxy)phenyl)pyrido[3,4-d]pyrimidin-4(3H)-one]							
< 0.25	< 0.25	O=c1c2cc(-c3ccc(C(F)(F)F)nc3)nc(-c3cccnc3)c2ncn1[C@@H]1COC[C@H]1O [Compound 79]						< 20 mL/min/kg	
	< 0.25	C[C@@H](CO)n1cnc2c(-c3cccc(F)c3)nc(-c3ccc(C(F)(F)F)cn3)cc2c1=O [Compound 47, (S)-8-(3-fluorophenyl)-3-(1-hydroxypropan-2-yl)-6-(5-(trifluoromethyl)pyridin-2-yl)pyrido[3,4-d]pyrimidin-4(3H)-one]							
< 0.25	< 0.25	Cn1cc(-c2nc(-c3ccc(C(F)(F)F)nc3)cc3c(=O)n(CC(C)(C)O)cnc23)cn1 [Compound 60]	6520 ng·h/mL	11.8 h	1120 ng/mL	45.7%	40.3 mL/min/kg	< 20 mL/min/kg	C0 [1, 5]: 350 ng/mL; Tmax [1, 7]: 8 h; AUC(0-t) [1, 7]: 29800 ng·h/mL
	< 0.25	C[C@@H](CO)n1cnc2c(-c3cccc(F)c3)nc(-c3ccc(C(F)(F)F)nc3)cc2c1=O [Compound 8]							
		C[C@@H](CO)n1cnc2c(-n3ccnc3)nc(-c3ccc(C(F)(F)F)nc3)cc2c1=O [Compound 163, (S)-3-(1-hydroxypropan-2-yl)-8-(1H-imidazol-1-yl)-6-(6-(trifluoromethyl)pyridin-3-yl)pyrido[3,4-d]pyrimidin-4(3H)-one]							CLint scaled [2, 14]: < 20 mL/min/kg
		C[C@@H](CO)n1cnc2c(-c3cnn(C)c3)nc(-c3ccc(C4CC4)nc3)cc2c1=O [Compound 83]							CLint scaled [2, 14]: < 20 mL/min/kg
< 0.25	< 0.25	CC(C)(O)Cn1cnc2c(-c3cccnc3)nc(-c3ccc(C(F)(F)F)cn3)cc2c1=O [Compound 105]	11300 ng·h/mL	55.9 h	2350 ng/mL	85%	11.4 mL/min/kg	< 20 mL/min/kg	C0 [1, 5]: 412 ng/mL; Tmax [1, 7]: 12 h; AUC(0-t) [1, 7]: 96100 ng·h/mL; half-life [1, 9]: 48.5 h
	< 0.25	C[C@@H](CO)n1cnc2c(-c3cccnc3)nc(-c3ccc(C4CC4)nc3)cc2c1=O [Compound 74]							

SMILES	fraction unbound at 30 min, 1 μM [3]	fraction unbound at 30 min, 1 μM [4]	AUC(0-t) [1, 5]	half-life [1, 6]	Cmax [1, 7]	bioavailability [1, 8]	CI Mean ([1]; mice, 1 mg/kg IV)	CLint scaled [2, 13]	also measured
C[C@@H](CO)n1cnc2c(-c3cccnc3)nc(-c3ccc(C(F)(F)F)cn3)cc2c1=O [Compound 46, (S)-3-(1-hydroxypropan-2-yl)-8-(pyridin-3-yl)-6-(5-(trifluoromethyl)pyridin-2-yl)pyrido[3,4-d]pyrimidin-4(3H)-one]	< 0.25	< 0.25	8400 ng·h/mL	15.7 h	2370 ng/mL	80.6%	29.3 mL/min/kg	< 20 mL/min/kg	Mouse CL (% Qh) ([1]; in vivo DMPK profile, mouse): 2 % Qh; C0 [1, 5]: 470 ng/mL; AUC(0-t) [1, 7]: 67700 ng·h/mL; half-life [1, 9]: 8 h; clearance [1, 10]: 1.8 mL/min/kg; half-life [1, 11]: 15.7 h; Vd [1, 10]: 2.3 L/kg; bioavailability [1, 12]: 80.6%; Human hepatocyte clearance Plated hepatocyte Alliance assay ([2]; Alliance assay): +++ (“+++” indicates a CLint value less than 20 mL/min/Kg); Plated heps (% Qh) [2]: < 1 % Qh; Plated heps (% Qh), All [2]: 1.0 % Qh; fraction unbound at 5.5 h, 1 μM [3]: 0.075; fraction unbound at 5.5 h, 1 μM [4]: 0.108
O=c1c2cc(-c3ccc(Cl)cc3)nc(-c3cccnc3)c2ncn1[C@H]1COC[C@@H]1O [Compound 125, 6-(4-chlorophenyl)-3-((3S,4R)-4-hydroxytetrahydrofuran-3-yl)-8-(pyridin-3-yl)pyrido[3,4-d]pyrimidin-4(3H)-one]	< 0.25	< 0.25						< 20 mL/min/kg	
C[C@H](n1cnc2c(-c3cnn(C)c3)nc(-c3ccc(Cl)cc3)cc2c1=O)C(C)(C)O [Compound 30]	< 0.25		6380 ng·h/mL	8.6 h	2160 ng/mL	114%	43.3 mL/min/kg	< 20 mL/min/kg	C0 [1, 5]: 457 ng/mL; Tmax [1, 7]: 8 h; AUC(0-t) [1, 7]: 72800 ng·h/mL
CC(C)(O)Cn1cnc2c(-c3cccnc3)nc(-c3ccc(C(F)(F)F)nc3)cc2c1=O [Compound 9]	< 0.25	< 0.25	4880 ng·h/mL	5.37 h	1470 ng/mL	70.3%	57 mL/min/kg	< 20 mL/min/kg	Mouse CL (% Qh) ([1]; in vivo DMPK profile, mouse): 3.85 % Qh; Tmax [1, 7]: 5.67 h; AUC(0-inf) ([1]; male, CD1, mouse, plasma, mice, 10 mg/kg PO, read-out: AUCInf Mean): 34200 ng·h/mL; clearance [1, 10]: 3.4 mL/min/kg; half-life [1, 11]: 5.4 h; Vd [1, 10]: 1.9 L/kg; bioavailability [1, 12]: 70.3%; Human hepatocyte clearance Plated hepatocyte Alliance assay ([2]; Alliance assay): +++ (“+++” indicates a CLint value less than 20 mL/min/Kg); Plated heps (% Qh) [2]: 2.1 % Qh; Plated heps (% Qh), All [2]: 0.6 % Qh; fraction unbound at 5.5 h, 1 μM [3]: 0.104; fraction unbound at 5.5 h, 1 μM [4]: 0.109
